The target of one experiment is T1, CDK4/cyclin D3 (Homo sapiens, UniProt P11802).
T1 construct: purchased Carna Biosciences, Inc. QS S Assist CDK4/Cyclin D3_FP Kit
The experiment is described as follows: Human CDK4/cyclin D3 inhibitory activity (QS S Assist CDK4/Cyclin D3_FP Kit, IMAP fluorescent polarization). The experiment is classed as biochemical. To be noted: read-out: CDK4 Activity symbol. In a few lines: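 Kinase reactions used kit CDK4/cyclin D3 at 12.5–25 ng/well with the kit ATP/substrate/metal mix in 20 mM HEPES (pH 7.4), 0.01% Tween20 and 2 mM DTT, run 45 min at room temperature. Phosphorylation was detected by IMAP fluorescence polarization (ex 485/em 535 nm) after 30 min binding in the dark. IC50 was fitted from percent inhibition against DMSO controls with and without enzyme.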

The target in another experiment is T2, CDK2/cyclin A2 (Homo sapiens, UniProt P24941).
T2 construct: purchased Carna Biosciences, Inc. QS S Assist CDK2/Cyclin A2_FP Kit
The experiment is described as follows: Human CDK2/cyclin A2 inhibitory activity (QS S Assist CDK2/Cyclin A2_FP Kit, IMAP fluorescent polarization). The experiment is classed as biochemical. To be noted: read-out: CDK2 Activity symbol. In a few lines:
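Kit CDK2/cyclin A2 (2.5 ng/well) was reacted with kit ATP/substrate/metal in 20 mM HEPES pH 7.4, 0.01% Tween 20 and 2 mM DTT for 60 min at room temperature. IMAP binding reagent was added for 30 min, then fluorescence polarization was read at 485/535 nm. IC50 came from dose-response fitting of percent inhibition.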

This is an account of results in patent publication US11084814B2, “Pyrido[3, 4-d]pyrimidine derivative and pharmaceutically acceptable salt thereof” (Teijin Pharma Limited, priority 2016, dated 2021).

T1 sequence (P11802 whole entry): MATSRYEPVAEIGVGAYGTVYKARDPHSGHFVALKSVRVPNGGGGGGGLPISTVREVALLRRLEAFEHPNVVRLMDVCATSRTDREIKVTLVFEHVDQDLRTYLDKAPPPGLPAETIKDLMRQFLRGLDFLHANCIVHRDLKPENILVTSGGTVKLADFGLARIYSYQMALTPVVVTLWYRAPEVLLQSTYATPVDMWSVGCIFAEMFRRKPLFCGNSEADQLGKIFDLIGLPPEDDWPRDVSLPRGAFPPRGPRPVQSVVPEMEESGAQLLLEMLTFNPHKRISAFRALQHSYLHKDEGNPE
T1 sequence (P30281 whole entry partner): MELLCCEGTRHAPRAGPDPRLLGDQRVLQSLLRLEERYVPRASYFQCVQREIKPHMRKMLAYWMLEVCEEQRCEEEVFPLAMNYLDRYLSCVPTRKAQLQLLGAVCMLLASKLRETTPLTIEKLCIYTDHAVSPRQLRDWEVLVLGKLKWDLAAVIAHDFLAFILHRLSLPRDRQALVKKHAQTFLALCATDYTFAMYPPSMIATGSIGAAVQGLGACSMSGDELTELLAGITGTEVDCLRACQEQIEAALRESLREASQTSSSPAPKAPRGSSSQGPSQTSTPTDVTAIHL

On to `C[C@H]1CCN(c2nc([C@@H](C)O)cc3cnc(Nc4ccc(N5CCNCC5=O)cn4)nc23)C1` [Compound 257], for which the IC50 is under 10 nM at CDK4/cyclin D3 and at least 100 nM on CDK2/cyclin A2.

For the molecule `C[C@H]1CCN(c2nc([C@@H](C)O)cc3cnc(Nc4ccc(N5CCCNCC5=O)cn4)nc23)C1` [Compound 258], the IC50 at CDK4/cyclin D3 is under 10 nM; at CDK2/cyclin A2, at least 100 nM.

Turning to `C[C@@H](O)c1cc2cnc(Nc3ccc(N4CCN(CCS(C)(=O)=O)CCC4=O)cn3)nc2c(N2CCCCC2)n1` [Compound 259], the IC50 at CDK4/cyclin D3 was under 10 nM; at CDK2/cyclin A2, at least 100 nM.

For `Cc1nc(Nc2ncc3cc([C@@H](C)O)nc(N4CCCCC4)c3n2)ccc1N1CCNCC1=O` [Compound 260], the IC50 on CDK4/cyclin D3 was under 10 nM; at CDK2/cyclin A2, at least 100 nM.

Regarding `Cc1nc(Nc2ncc3cc([C@@H](C)O)nc(N4CC[C@H](C)C4)c3n2)ccc1N1CCNCC1=O` [Compound 261], the IC50 at CDK4/cyclin D3 was under 10 nM; at CDK2/cyclin A2, at least 100 nM.

For the molecule `C[C@@H](O)c1cc2cnc(Nc3ccc4c(n3)CCN(C(=O)CN3CCC(O)CC3)C4)nc2c(N2C3CCC2CC3)n1` [Compound 262], the IC50 at CDK4/cyclin D3 was under 10 nM; on CDK2/cyclin A2, at least 100 nM.

For the molecule `C[C@@H](O)c1cc2cnc(Nc3ccc4c(n3)CCN(C(=O)CN3CCN(CCO)CC3)C4)nc2c(N2C3CCC2CC3)n1` [Compound 263], the IC50 was under 10 nM at CDK4/cyclin D3 and at least 100 nM at CDK2/cyclin A2.

Take `C[C@@H](O)c1cc2cnc(Nc3ccc4c(n3)CCN(C(=O)CN3CCN(C)CC3)C4)nc2c(N2C3CCC2CC3)n1` [Compound 264]: the IC50 at CDK4/cyclin D3 was under 10 nM; on CDK2/cyclin A2 it was at least 100 nM.

As for `C[C@@H](O)c1cc2cnc(Nc3ccc4c(n3)CCN(C(=O)CN3CC5(CN(C)C5)C3)C4)nc2c(N2C3CCC2CC3)n1` [Compound 265], the IC50 on CDK4/cyclin D3 is under 10 nM; at CDK2/cyclin A2 it was at least 100 nM.

Take `C[C@@H](O)c1cc2cnc(Nc3ccc4c(n3)CCN(C(=O)CN3CC5(COC5)C3)C4)nc2c(N2CCCCC2)n1` [Compound 266]: the values for the IC50 at CDK4/cyclin D3 and on CDK2/cyclin A2 were under 10 nM and at least 100 nM, respectively.

Turning to `C[C@@H](O)c1cc2cnc(Nc3ccc4c(n3)CCN(C(=O)CN3CC5(CC(O)C5)C3)C4)nc2c(N2C3CCC2CC3)n1` [Compound 267], the IC50 at CDK4/cyclin D3 is under 10 nM; on CDK2/cyclin A2, at least 100 nM.

On to `C[C@@H](O)c1cc2cnc(Nc3ccc4c(n3)CCN(C(=O)CN3CC5(CC(O)C5)C3)C4)nc2c(N2CCCCC2)n1` [Compound 268], for which the results for the IC50 on CDK4/cyclin D3 and on CDK2/cyclin A2 were under 10 nM and at least 100 nM, respectively.

For `C[C@@H](O)c1cc2cnc(Nc3ccc4c(n3)CCN(C(=O)CN3CC(F)C3)C4)nc2c(N2CCCCC2)n1` [Compound 269], the IC50 is under 10 nM on CDK4/cyclin D3 and at least 100 nM on CDK2/cyclin A2.

`C[C@@H](O)c1cc2cnc(Nc3ccc4c(n3)CCN(C(=O)CN3CCC3)C4)nc2c(N2CCCCC2)n1` [Compound 270]: the IC50 was under 10 nM at CDK4/cyclin D3 and at least 100 nM on CDK2/cyclin A2.

Regarding `C[C@@H](O)c1cc2cnc(Nc3ccc(CN4CCN(CCO)CC4)cn3)nc2c(N2CCC(C#N)CC2)n1` [Compound 271], the IC50 at CDK4/cyclin D3 is under 10 nM; on CDK2/cyclin A2 it was at least 100 nM.

Take `C[C@@H](O)c1cc2cnc(Nc3ccc(N4CCNCC4=O)cn3)nc2c(N2CCC(C#N)CC2)n1` [Compound 272]: the results for the IC50 at CDK4/cyclin D3 and on CDK2/cyclin A2 were under 10 nM and at least 100 nM, respectively.

Consider `C[C@@H](O)c1cc2cnc(Nc3ccc(N4CCNCC4)nn3)nc2c(N2CCC(C#N)CC2)n1` [Compound 273], for which the IC50 is under 10 nM at CDK4/cyclin D3 and at least 100 nM at CDK2/cyclin A2.

As to `C[C@@H](O)c1cc2cnc(Nc3ccc4c(n3)CCNC4)nc2c(N2CCC(C#N)CC2)n1` [Compound 274], the IC50 at CDK4/cyclin D3 was under 10 nM; at CDK2/cyclin A2, at least 100 nM.

As for `OCCN1CCN(Cc2ccc(Nc3ncc4cc(C5COC5)nc(N5CCCCC5)c4n3)nc2)CC1` [Compound 275], the IC50 was under 10 nM at CDK4/cyclin D3 and at least 100 nM at CDK2/cyclin A2.

Consider `O=C1CCNCCN1c1ccc(Nc2ncc3cc(C4COC4)nc(N4CCCCC4)c3n2)nc1` [Compound 276], for which the IC50 at CDK4/cyclin D3 is under 10 nM; at CDK2/cyclin A2 it was at least 100 nM.

Turning to `c1cc(N2CCNCC2)nnc1Nc1ncc2cc(C3COC3)nc(N3CCCCC3)c2n1` [Compound 277], the IC50 at CDK4/cyclin D3 is 10 to 100 nM; at CDK2/cyclin A2 it was at least 100 nM.

With `C[C@@H](O)c1cc2cnc(Nc3ccc4c(n3)CCN(CCO)C4)nc2c(N2CCC(C#N)CC2)n1` [Compound 278], the IC50 was under 10 nM at CDK4/cyclin D3 and at least 100 nM on CDK2/cyclin A2.

For `C[C@@H](O)c1cc2cnc(Nc3ccc4c(n3)CCN(C3CN(C)C3)C4)nc2c(N2CCC(C#N)CC2)n1` [Compound 279], the IC50 on CDK4/cyclin D3 was under 10 nM; on CDK2/cyclin A2 it was at least 100 nM.

On to `CC(O)c1cc2cnc(Nc3ccc4c(n3)CC3CCC4N3CCO)nc2c(N2CCCCC2)n1` (centres unmarked) [Compound 280], for which the IC50 at CDK4/cyclin D3 was 10 to 100 nM; at CDK2/cyclin A2 it was at least 100 nM.

With `C[C@@H](O)c1cc2cnc(Nc3ccc(N4CCNCC4=O)cn3)nc2c(N2C3CCCC2CC3)n1` [Compound 281], the IC50 on CDK4/cyclin D3 was under 10 nM; on CDK2/cyclin A2, at least 100 nM.

As to `C[C@@H](O)c1cc2cnc(Nc3ccc4c(n3)CCN(C3CCOCC3)C4)nc2c(N2CCCCC2)n1` [Compound 282], the IC50 at CDK4/cyclin D3 was under 10 nM; on CDK2/cyclin A2 it was at least 100 nM.

With `C[C@@H](O)c1cc2cnc(Nc3ccc4c(n3)CCN([C@H]3CC[C@H](O)CC3)C4)nc2c(N2CCCCC2)n1` [Compound 283], the figures for the IC50 on CDK4/cyclin D3 and on CDK2/cyclin A2 were 10 to 100 nM and at least 100 nM, respectively.

Regarding `C[C@@H](O)c1cc2cnc(Nc3ccc4c(n3)CCN([C@H]3CC[C@@H](O)CC3)C4)nc2c(N2CCCCC2)n1` [Compound 284], the IC50 is 10 to 100 nM at CDK4/cyclin D3 and at least 100 nM at CDK2/cyclin A2.

As for `C[C@@H](O)c1cc2cnc(Nc3ccc4c(n3)CCN(C(=O)Cc3ccncc3)C4)nc2c(N2CCCCC2)n1` [Compound 285], the IC50 is 10 to 100 nM at CDK4/cyclin D3 and at least 100 nM at CDK2/cyclin A2.

On to `C[C@@H](O)c1cc2cnc(Nc3ccc4c(n3)CCN(C(=O)Cn3ccnc3)C4)nc2c(N2CCCCC2)n1` [Compound 286], for which the figures for the IC50 on CDK4/cyclin D3 and on CDK2/cyclin A2 were under 10 nM and at least 100 nM, respectively.

`C[C@@H](O)c1cc2cnc(Nc3ccc(N4CCNCC4)cn3)nc2c(N2CCOC[C@@H]2C)n1` [Compound 288]: the IC50 at CDK4/cyclin D3 is under 10 nM; at CDK2/cyclin A2, at least 100 nM.

Turning to `CC(O)c1cc2cnc(Nc3ccc(N4CCNCC4)cn3)nc2c(N2CCOCC2C)n1` (centres unmarked) [Compound 289], the IC50 at CDK4/cyclin D3 was under 10 nM; at CDK2/cyclin A2, at least 100 nM.

For `C[C@@H](O)c1cc2cnc(Nc3ccc(CN4CCN(C)CC4)cn3)nc2c(N2CCOC[C@@H]2C)n1` [Compound 290], the IC50 was under 10 nM at CDK4/cyclin D3 and at least 100 nM on CDK2/cyclin A2.

On to `CC(O)c1cc2cnc(Nc3ccc(CN4CCN(C)CC4)cn3)nc2c(N2C3CCC2COC3)n1` (centres unmarked) [Compound 292], for which the IC50 at CDK4/cyclin D3 is under 10 nM; on CDK2/cyclin A2, at least 100 nM.

As for `C[C@@H](O)c1cc2cnc(Nc3ccc(CN4CCN(CCO)CC4)cn3)nc2c(N2CCOC[C@@H]2C)n1` [Compound 293], the IC50 is 10 to 100 nM on CDK4/cyclin D3 and at least 100 nM on CDK2/cyclin A2.

As for `CC(O)c1cc2cnc(Nc3ccc(CN4CCN(CCO)CC4)cn3)nc2c(N2CCOCC2C)n1` (centres unmarked) [Compound 294], the values for the IC50 on CDK4/cyclin D3 and on CDK2/cyclin A2 were under 10 nM and at least 100 nM, respectively.

For the molecule `CC(O)c1cc2cnc(Nc3ccc(CN4CCN(CCO)CC4)cn3)nc2c(N2C3CCC2COC3)n1` (centres unmarked) [Compound 295], the results for the IC50 at CDK4/cyclin D3 and on CDK2/cyclin A2 were under 10 nM and at least 100 nM, respectively.
